Reference: patent US9321773B2, “Compounds” (Respivert Ltd, priority 2009, dated 2016)

Assays:
[1] = test system: PMA-differentiated U937 cells; assay: MTT Assay (cell viability); format: cell-based, Human; details: percentage loss of cell viability; for Cell Viability MTT Assay in D-U937 cells at 4 hr: 4 hr in 5% FCS; for Cell Viability MTT Assay in D-U937 cells at 24 hr: 24 hr in 10% FCS
Method: PMA-differentiated U937 cells were pre-incubated with compound for 4 hr in 5% FCS or 10% FCS for 24 hr. The supernatant was replaced with 200 μL of new media and 10 μL of MTT stock solution (5 mg/ml) added to each well. After 1 hr incubation, the media were removed, 200 μL of DMSO added to each well and the plates were shaken lightly for 1 hr prior to reading the absorbance at 550 nm. The percentage loss of cell viability was calculated for each well relative to vehicle (0.5% DMSO)-treatment (Table 3).

recombinant PI3 kinase δ = recombinant PI3 kinase δ (Homo sapiens (Human), UniProt O00329); assay: Enzyme Inhibition Assay (HTRF PI3K enzyme assay, TR-FRET); format: biochemical; details: activity range; read-out: PI3 Kinase Inhibition IC50 values at stated Isozyme δ
Chain of recombinant PI3 kinase δ (O00329 whole entry): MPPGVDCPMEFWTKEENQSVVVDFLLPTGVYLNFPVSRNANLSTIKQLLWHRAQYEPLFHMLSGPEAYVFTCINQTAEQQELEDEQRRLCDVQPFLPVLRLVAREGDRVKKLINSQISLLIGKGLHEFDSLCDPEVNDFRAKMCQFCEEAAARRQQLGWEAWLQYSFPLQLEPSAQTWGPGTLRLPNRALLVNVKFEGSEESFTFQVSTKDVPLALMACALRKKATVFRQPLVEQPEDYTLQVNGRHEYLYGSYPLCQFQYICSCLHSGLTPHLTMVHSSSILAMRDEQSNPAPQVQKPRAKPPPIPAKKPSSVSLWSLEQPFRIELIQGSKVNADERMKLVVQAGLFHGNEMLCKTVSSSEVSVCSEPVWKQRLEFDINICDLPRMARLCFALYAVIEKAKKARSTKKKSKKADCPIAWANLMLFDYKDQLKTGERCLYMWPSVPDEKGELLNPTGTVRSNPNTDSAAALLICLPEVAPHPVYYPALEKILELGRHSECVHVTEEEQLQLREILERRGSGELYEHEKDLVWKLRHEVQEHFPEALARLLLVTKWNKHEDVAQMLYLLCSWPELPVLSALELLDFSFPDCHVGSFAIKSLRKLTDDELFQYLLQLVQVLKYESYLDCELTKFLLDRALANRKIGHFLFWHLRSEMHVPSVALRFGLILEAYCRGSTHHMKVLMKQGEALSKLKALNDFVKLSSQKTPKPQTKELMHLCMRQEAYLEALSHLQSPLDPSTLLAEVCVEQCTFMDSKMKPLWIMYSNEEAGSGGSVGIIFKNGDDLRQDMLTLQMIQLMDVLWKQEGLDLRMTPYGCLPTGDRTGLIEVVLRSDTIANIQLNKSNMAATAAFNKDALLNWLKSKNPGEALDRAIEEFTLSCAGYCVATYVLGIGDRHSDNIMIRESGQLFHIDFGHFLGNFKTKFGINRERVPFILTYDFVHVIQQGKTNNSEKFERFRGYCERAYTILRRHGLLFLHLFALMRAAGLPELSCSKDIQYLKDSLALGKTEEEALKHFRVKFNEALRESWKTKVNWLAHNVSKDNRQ
Chain of recombinant PI3 kinase δ (P27986 whole entry partner): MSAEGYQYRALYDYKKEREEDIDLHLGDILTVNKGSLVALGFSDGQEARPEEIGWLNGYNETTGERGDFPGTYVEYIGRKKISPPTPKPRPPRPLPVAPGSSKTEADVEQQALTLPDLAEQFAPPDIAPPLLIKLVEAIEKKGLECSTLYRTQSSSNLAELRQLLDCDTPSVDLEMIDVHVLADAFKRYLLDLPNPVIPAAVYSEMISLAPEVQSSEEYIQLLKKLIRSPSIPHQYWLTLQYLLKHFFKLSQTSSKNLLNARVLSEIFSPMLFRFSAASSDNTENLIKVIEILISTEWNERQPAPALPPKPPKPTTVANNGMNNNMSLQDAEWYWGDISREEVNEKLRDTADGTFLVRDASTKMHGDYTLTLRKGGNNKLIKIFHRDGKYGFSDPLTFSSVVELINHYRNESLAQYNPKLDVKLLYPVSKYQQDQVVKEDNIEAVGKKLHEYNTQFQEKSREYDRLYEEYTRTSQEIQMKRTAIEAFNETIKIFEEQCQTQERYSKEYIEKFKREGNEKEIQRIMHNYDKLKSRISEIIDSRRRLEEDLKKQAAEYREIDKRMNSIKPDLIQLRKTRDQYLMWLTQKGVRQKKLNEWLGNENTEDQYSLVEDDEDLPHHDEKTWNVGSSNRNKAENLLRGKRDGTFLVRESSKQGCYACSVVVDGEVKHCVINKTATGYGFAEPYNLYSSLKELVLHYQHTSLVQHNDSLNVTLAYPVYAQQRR
Text: PI3 kinases catalyse the phosphorylation of phosphatidylinositol 4,5-biphosphate (PIP2) to phosphatidylinositol 3,4,5-triphosphate (PIP3) in the presence of ATP and Mg^2+ ions. The PIP3 product can be detected by displacement of biotin-PIP3 from energy transfer complexes consisting of europium labelled anti-GST monoclonal antibody, a GST-tagged Pleckstrin homology (PH) domain, biotinylated PIP3 and streptavidin-allophycocyanin (APC) by the time-resolved fluorescence resonance energy transfer (TR-FRET) (HTRF® PI3K enzyme assay, Millipore). […] The PIP3 product formed by PI3K activity displaces biotin-PIP3 from the complex and results in a loss of energy transfer (decreasing signal).
The compound to be tested was added, at the desired final concentrations, to a mixture of PIP2 substrate and recombinant PI3 kinase α, δ or γ enzymes (Millipore), and the mixture incubated for 2 hr at RT. […] A stopping solution containing biotinylated PIP3 and the detection mix containing the GST tagged GRP1 pleckstrin homology (PH) domain and fluorophores were then added and the mixture was incubated at RT for 15-18 hr, prior to detection in a fluorescence microplate reader (Varioskan® Flash, ThermoFisher Scientific).

[2] = test system: H2O2 induced pAkt in D-U937 cells; assay: PI3Kδ Cell Based Assay (H2O2 induced pAkt); details: Homo sapiens, dU937; activity range; D-U937 cells; read-out: Cellular Activity IC50 values (H2O2 induced pAkt D-U937 Cells)
Method: As a means of assessing PI3K 6 activation in response to stimuli, the phosphorylation status of the protein, Akt, a downstream product of PI3K6, signaling was determined. Human monocytic cells (U937 cells), were differentiated to macrophage-type cells by incubation with phorbol myristate acetate (PMA; 100 ng/mL) for 48 to 72 hr. […] The cells were washed with buffer (PBS containing 0.1% Triton X-100) and were incubated with blocking solution (1% BSA in PBS) for 1 hr and were then re-washed with buffer and incubated overnight with either anti-pAkt antibody or anti-pan-Akt antibody (both from Cell Signaling Technology). […] This reaction was stopped by addition of 100 μL of 1N H2SO4 solution. […] The ratio of pAkt signal to total Akt signal was used to quantitate the extent of PI3K δ activation. […] The IC50 values were calculated from the concentration-response curves generated by the serial dilutions of the test compounds (Table 3 and Table 4).

Structure (SMILES)	IC50 (recombinant PI3 kinase δ) [µM]	IC50 [2] [µM]	Cell Viability MTT Assay in D-U937 cells at 4 hr [1]	Cell Viability MTT Assay in D-U937 cells at 24 hr [1]
Nc1ncnc2c1c(-c1ccc(O)cc1)nn2Cc1nc2cccc(C#CCCCC(=O)NC3CCCC3)c2c(=O)n1Cc1ccccc1Cl [Example 74, 6-(2-((4-Amino-3-(4-hydroxyphenyl)-1H-pyrazolo[3,4-d]pyrimidin-1-yl)methyl)-3-(2-chlorobenzyl)-4-oxo-3,4-dihydroquinazolin-5-yl)-N-cyclopentylhex-5-ynamide]	< 0.05	–	− (− <30%)	− (− <30%)
CC(=O)NCC(=O)NCC#Cc1cccc2nc(Cn3nc(-c4cccc(O)c4)c4c(N)ncnc43)n(Cc3ccccc3Cl)c(=O)c12 [Example 61, 2-Acetamido-N-(3-(2-((4-amino-3-(3-hydroxyphenyl)-1H-pyrazolo[3,4-d]pyrimidin-1-yl)methyl)-3-(2-chlorobenzyl)-4-oxo-3,4-dihydroquinazolin-5-yl)prop-2-yn-1-yl)acetamide]	–	< 0.01	− (− <30%)	− (− <30%)
CC(C)NC(=O)CCCC#Cc1cccc2nc(Cn3nc(-c4cccc(O)c4)c4c(N)ncnc43)n(Cc3ccccc3Cl)c(=O)c12 [Example 87, 6-(2-((4-Amino-3-(3-hydroxyphenyl)-1H-pyrazolo[3,4-d]pyrimidin-1-yl)methyl)-3-(2-chlorobenzyl)-4-oxo-3,4-dihydroquinazolin-5-yl)-N-isopropylhex-5-ynamide]	< 0.05	< 0.01	− (− <30%)	− (− <30%)
Nc1ncnc2c1c(-c1cccc(O)c1)nn2Cc1nc2cccc(C#CCCCC(=O)Nc3ccncc3)c2c(=O)n1Cc1ccccc1Cl [Example 80, 6-(2-((4-Amino-3-(3-hydroxyphenyl)-1H-pyrazolo[3,4-d]pyrimidin-1-yl)methyl)-3-(2-chlorobenzyl)-4-oxo-3,4-dihydroquinazolin-5-yl)-N-(pyridin-4-yl)hex-5-ynamide]	< 0.05	0.01 to 1	− (− <30%)	− (− <30%)
Cc1cnc(Cn2c(Cn3nc(-c4cccc(O)c4)c4c(N)ncnc43)nc3cccc(C#CCCCC(=O)N4CCOCC4)c3c2=O)cn1 [Example 57]	–	< 0.01	− (− <30%)	− (− <30%)

The next lines start with results.

IC50 (recombinant PI3 kinase δ) [µM]	IC50 [2] [µM]	Structure (SMILES)	Cell Viability MTT Assay in D-U937 cells at 4 hr [1]	Cell Viability MTT Assay in D-U937 cells at 24 hr [1]
< 0.05	< 0.01	CN1CCN(CCNC(=O)CCCC#Cc2cccc3nc(Cn4nc(-c5ccc(O)cc5)c5c(N)ncnc54)n(Cc4ccccc4Cl)c(=O)c23)CC1 [Example 84, 6-(2-((4-Amino-3-(4-hydroxyphenyl)-1H-pyrazolo[3,4-d]pyrimidin-1-yl)methyl)-3-(2-chlorobenzyl)-4-oxo-3,4-dihydroquinazolin-5-yl)-N-(2-(4-methylpiperazin-1-yl)ethyl)hex-5-ynamide]	− (− <30%)	− (− <30%)
< 0.05	< 0.01	CN1CCN(CCN(C)C(=O)CCCC#Cc2cccc3nc(Cn4nc(-c5ccc(O)cc5)c5c(N)ncnc54)n(Cc4ccccc4Cl)c(=O)c23)CC1 [Example 85, 6-(2-((4-Amino-3-(4-hydroxyphenyl)-1H-pyrazolo[3,4-d]pyrimidin-1-yl)methyl)-3-(2-chlorobenzyl)-4-oxo-3,4-dihydroquinazolin-5-yl)-N-methyl-N-(2-(4-methylpiperazin-1-yl)ethyl)hex-5-ynamide]	− (− <30%)	− (− <30%)
0.05 to 1	0.01 to 1	CN1CCCN(C(=O)CCCC#Cc2cccc3nc(Cn4nc(-c5cccc(O)c5)c5c(N)ncnc54)n(Cc4ccccc4Cl)c(=O)c23)CC1 [Example 94, 2-((4-Amino-3-(3-hydroxyphenyl)-1H-pyrazolo[3,4-d]pyrimidin-1-yl)methyl)-3-(2-chlorobenzyl)-5-(6-(4-methyl-1,4-diazepan-1-yl)-6-oxohex-1-ynyl)quinazolin-4(3H)-one]	− (− <30%)	− (− <30%)
